Data as given in patent publication US20090246276A1, “Pharmaceutical Compositions” (priority 2008, published 2009).
Where a name gives a salt, the structure may show the parent alone.

Key:
[1] = Solubility (37° C.) in 0.1N HCl, pH 4.5, pH 6.8; type: physicochemical; set-up: Solubility (37° C.): unit not given here; details: for Solubility (37° C.): hydrochloride; for solubility: 37 °C
[2] = In-vitro dissolution, 900 ml medium (0.1N HCl, pH 4.5 acetate buffer, pH 6.8 or pH 7.5 phosphate buffer), USP Apparatus 1, 75 rpm, 37° C.; type: physicochemical; details: for % Released (Bi-layer Tablets): Example 16 coated bi-layer tablet; for % Released (Homogenous Tablets): Example 19 tablet; for % Release: 900 ml Phosphate Buffer, pH 7.5, Apparatus 1, 75 rpm, 37 C.
Description: The dissolution profile of the above pharmaceutical composition was determined under the dissolution conditions described below in Tables 1A, 1B, and 1C.

[3] = Example 22: effect of bupropion (Wellbutrin XL 300 mg) on steady-state pharmacokinetics of citalopram (Celexa 20 mg)
[4] = steady-state dosing of Celexa 20 mg alone
[5] = steady-state dosing of Celexa 20 mg plus Wellbutrin XL 300 mg

SMILES: CC(NC(C)(C)C)C(=O)c1cccc(Cl)c1 (stereo not drawn) [Bupropion HCl, bupropion hydrochloride]
- Solubility (37° C.) ([1]; 0.1N HCl): 416
- Solubility (37° C.) ([1]; pH 4.5): 437
- Solubility (37° C.) ([1]; pH 6.8): 437
- % Released (Bi-layer Tablets) ([2]; 0.1N HCl, 1 hr): 16.36%
- % Released (Bi-layer Tablets) ([2]; 0.1N HCl, 2 hr): 33.56%
- % Released (Bi-layer Tablets) ([2]; 0.1N HCl, 3 hr): 49.54%
- % Released (Bi-layer Tablets) ([2]; 0.1N HCl, 4 hr): 65.00%
- % Released (Bi-layer Tablets) ([2]; 0.1N HCl, 5 hr): 79.63%
- % Released (Bi-layer Tablets) ([2]; 0.1N HCl, 6 hr): 88.97%
- % Released (Bi-layer Tablets) ([2]; 0.1N HCl, 7 hr): 94.82%
- % Released (Bi-layer Tablets) ([2]; 0.1N HCl, 8 hr): 97.06%
- % Released (Homogenous Tablets) ([2]; 0.1N HCl, 1 hr): 16.63%
- % Released (Homogenous Tablets) ([2]; 0.1N HCl, 2 hr): 39.40%
- % Released (Homogenous Tablets) ([2]; 0.1N HCl, 3 hr): 60.60%
- % Released (Homogenous Tablets) ([2]; 0.1N HCl, 4 hr): 78.36%
- % Released (Homogenous Tablets) ([2]; 0.1N HCl, 5 hr): 90.30%
- % Released (Homogenous Tablets) ([2]; 0.1N HCl, 6 hr): 96.38%
- % Released (Homogenous Tablets) ([2]; 0.1N HCl, 7 hr): 99.14%
- % Released (Homogenous Tablets) ([2]; 0.1N HCl, 8 hr): 100.26%

SMILES: CN(C)CCCC1(c2ccc(F)cc2)OCc2cc(C#N)ccc21 (stereo not drawn) [Citalopram, citalopram]
- AUC ([3]; both, human, in vivo, 20 mg): 1220 ng·h/mL
- Cmax ([3]; both, human, in vivo, 20 mg): 67.9 ng/mL
- MRT ([3]; both, human, in vivo, 20 mg): 48.6 h
- Tmax ([3]; both, human, in vivo, 20 mg): 3.96 h
- Vd/F ([3]; both, human, in vivo, 20 mg): 750 L
- CL/F, Mean [3, 4]: 17.66 L/h
- Cavg, Mean [3, 4]: 50.8 ng/mL
- Cmin, Mean [3, 4]: 39.5 ng/mL
- Fluctuation, Mean [3, 4]: 57.22%
- Swing, Mean [3, 4]: 75.55%
- CL/F, Mean [3, 5]: 11.04 L/h
- Cavg, Mean [3, 5]: 78.2 ng/mL
- Cmin, Mean [3, 5]: 61.6 ng/mL
- Fluctuation, Mean [3, 5]: 48.46%
- Swing, Mean [3, 5]: 62.15%

SMILES: CNCCC[C@]1(c2ccc(F)cc2)OCc2cc(C#N)ccc21 [Desmethylcitalopram, desmethylcitalopram]
- AUC0-τ, Mean [3, 4]: 445.9 ng·h/mL
- Cavg, Mean [3, 4]: 18.6 ng/mL
- Cmax, Mean [3, 4]: 21.7 ng/mL
- Cmin, Mean [3, 4]: 16.3 ng/mL
- Fluctuation, Mean [3, 4]: 28.93%
- M/P Ratio, Mean [3, 4]: 0.4062
- MRT, Mean [3, 4]: 98.54 h
- Swing, Mean [3, 4]: 33.09%
- Tmax, Mean [3, 4]: 5.46 h
- AUC0-τ, Mean [3, 5]: 485.2 ng·h/mL
- Cavg, Mean [3, 5]: 20.2 ng/mL
- Cmax, Mean [3, 5]: 23.6 ng/mL
- Cmin, Mean [3, 5]: 17.3 ng/mL
- Fluctuation, Mean [3, 5]: 30.39%
- M/P Ratio, Mean [3, 5]: 0.2814
- MRT, Mean [3, 5]: 85.78 h
- Swing, Mean [3, 5]: 35.98%
- Tmax, Mean [3, 5]: 7.12 h

SMILES: N#Cc1ccc2c(c1)COC2(CCCN)c1ccc(F)cc1 (stereo not drawn) [Didesmethylcitalopram, didesmethylcitalopram]
- AUC0-τ, Mean [3, 4]: 92.04 ng·h/mL
- Cavg, Mean [3, 4]: 3.84 ng/mL
- Cmax, Mean [3, 4]: 4.40 ng/mL
- Cmin, Mean [3, 4]: 3.42 ng/mL
- Fluctuation, Mean [3, 4]: 26.43%
- M/P Ratio, Mean [3, 4]: 0.09587
- MRT, Mean [3, 4]: 258.96 h
- Swing, Mean [3, 4]: 29.97%
- Tmax, Mean [3, 4]: 6.41 h

SMILES: OCCOCCN1CCN(C2=Nc3ccccc3Sc3ccccc32)CC1 [Quetiapine Fumarate, quetiapine fumarate]
- solubility ([1]; 0.1N HCl, simulated gastric fluid): 41000 µg/mL
- solubility ([1]; pH 4.5, aqueous buffer, pH 4.5): 3000 µg/mL
- solubility ([1]; pH 6.8, aqueous buffer, pH 6.8): 300 µg/mL
- % Released ([2]; Example 17 tablet, 0.1N HCl, 1 hr): 18%
- % Released ([2]; Example 17 tablet, 0.1N HCl, 2 hr): 39%
- % Released ([2]; Example 17 tablet, 0.1N HCl, 4 hr): 69%
- % Released ([2]; Example 17 tablet, 0.1N HCl, 8 hr): 98%
- % Released ([2]; Example 17 tablet, 0.1N HCl, 12 hr): 97%
- % Released ([2]; Example 17 tablet, 0.1N HCl, 16 hr): 96%
- % Released ([2]; Example 17 tablet, pH 6.8 phosphate buffer, 1 hr): 2%
- % Released ([2]; Example 17 tablet, pH 6.8 phosphate buffer, 2 hr): 10%
- % Released ([2]; Example 17 tablet, pH 6.8 phosphate buffer, 4 hr): 41%
- % Released ([2]; Example 17 tablet, pH 6.8 phosphate buffer, 8 hr): 76%
- % Released ([2]; Example 17 tablet, pH 6.8 phosphate buffer, 12 hr): 93%
- % Released ([2]; Example 17 tablet, pH 6.8 phosphate buffer, 16 hr): 95%

SMILES: COc1cccc(C2(O)CCCCC2CN(C)C)c1 (stereo not drawn) [Tramadol HCl, tramadol HCl]
- % Released ([2]; Example 20 tablet, 0.1N HCl, 0.5 hr): 10%
- % Released ([2]; Example 20 tablet, 0.1N HCl, 1 hr): 33%
- % Released ([2]; Example 20 tablet, 0.1N HCl, 2 hr): 73%
- % Released ([2]; Example 20 tablet, 0.1N HCl, 3 hr): 96%
- % Released ([2]; Example 20 tablet, 0.1N HCl, 4 hr): 104%
- % Released ([2]; Example 20 tablet, 0.1N HCl, 5 hr): 106%
- % Released ([2]; Example 20 tablet, 0.1N HCl, 6 hr): 106%
- % Released ([2]; Example 20 tablet, 0.1N HCl, 8 hr): 106%
- % Released ([2]; Example 20 tablet, 0.1N HCl, 10 hr): 105%
- % Released ([2]; Example 20 tablet, 0.1N HCl, 12 hr): 105%
- % Released ([2]; Example 20 tablet, pH 6.8 phosphate buffer, 0.5 hr): 9%
- % Released ([2]; Example 20 tablet, pH 6.8 phosphate buffer, 1 hr): 32%
- % Released ([2]; Example 20 tablet, pH 6.8 phosphate buffer, 2 hr): 75%
- % Released ([2]; Example 20 tablet, pH 6.8 phosphate buffer, 3 hr): 98%
- % Released ([2]; Example 20 tablet, pH 6.8 phosphate buffer, 4 hr): 105%
- % Released ([2]; Example 20 tablet, pH 6.8 phosphate buffer, 5 hr): 107%
- % Released ([2]; Example 20 tablet, pH 6.8 phosphate buffer, 6 hr): 107%
- % Released ([2]; Example 20 tablet, pH 6.8 phosphate buffer, 8 hr): 107%
- % Released ([2]; Example 20 tablet, pH 6.8 phosphate buffer, 10 hr): 107%
- % Released ([2]; Example 20 tablet, pH 6.8 phosphate buffer, 12 hr): 107%
- % Release ([2]; Example 27 controlled release tablet (batch 1258-171), 2 hrs): 51%
- % Release ([2]; Example 27 controlled release tablet (batch 1258-171), 4 hrs): 70%
- % Release ([2]; Example 27 controlled release tablet (batch 1258-171), 8 hrs): 96%
- % Release ([2]; Example 27 controlled release tablet (batch 1258-171), 10 hrs): 100%
- % Release ([2]; Example 27 controlled release tablet (batch 1258-171), 16 hrs): 100%
- % Release ([2]; Example 28 controlled release tablet (batch 1258-175), 2 hrs): 0%
- % Release ([2]; Example 28 controlled release tablet (batch 1258-175), 4 hrs): 7%
- % Release ([2]; Example 28 controlled release tablet (batch 1258-175), 8 hrs): 61%
- % Release ([2]; Example 28 controlled release tablet (batch 1258-175), 10 hrs): 74%
- % Release ([2]; Example 28 controlled release tablet (batch 1258-175), 16 hrs): 84%
- % Released ([2]; Example 29 controlled release tablet (batch no. 08070T), 900 ml 0.1N HCl, USP Apparatus 1, 75 rpm, 37° C., 0.5 hr): 18%
- % Released ([2]; Example 29 controlled release tablet (batch no. 08070T), 900 ml 0.1N HCl, USP Apparatus 1, 75 rpm, 37° C., 1 hr): 28%
- % Released ([2]; Example 29 controlled release tablet (batch no. 08070T), 900 ml 0.1N HCl, USP Apparatus 1, 75 rpm, 37° C., 2 hr): 42%
- % Released ([2]; Example 29 controlled release tablet (batch no. 08070T), 900 ml 0.1N HCl, USP Apparatus 1, 75 rpm, 37° C., 3 hr): 53%
- % Released ([2]; Example 29 controlled release tablet (batch no. 08070T), 900 ml 0.1N HCl, USP Apparatus 1, 75 rpm, 37° C., 4 hr): 62%
- % Released ([2]; Example 29 controlled release tablet (batch no. 08070T), 900 ml 0.1N HCl, USP Apparatus 1, 75 rpm, 37° C., 5 hr): 70%
- % Released ([2]; Example 29 controlled release tablet (batch no. 08070T), 900 ml 0.1N HCl, USP Apparatus 1, 75 rpm, 37° C., 6 hr): 76%
- % Released ([2]; Example 29 controlled release tablet (batch no. 08070T), 900 ml 0.1N HCl, USP Apparatus 1, 75 rpm, 37° C., 8 hr): 86%
- % Released ([2]; Example 29 controlled release tablet (batch no. 08070T), 900 ml 0.1N HCl, USP Apparatus 1, 75 rpm, 37° C., 10 hr): 93%
- % Released ([2]; Example 29 controlled release tablet (batch no. 08070T), 900 ml 0.1N HCl, USP Apparatus 1, 75 rpm, 37° C., 12 hr): 97%
- % Released ([2]; Example 29 controlled release tablet (batch no. 08070T), 900 ml pH 6.8 phosphate buffer, USP Apparatus 1, 75 rpm, 37° C., 0.5 hr): 19%
- % Released ([2]; Example 29 controlled release tablet (batch no. 08070T), 900 ml pH 6.8 phosphate buffer, USP Apparatus 1, 75 rpm, 37° C., 1 hr): 29%
- % Released ([2]; Example 29 controlled release tablet (batch no. 08070T), 900 ml pH 6.8 phosphate buffer, USP Apparatus 1, 75 rpm, 37° C., 2 hr): 44%
- % Released ([2]; Example 29 controlled release tablet (batch no. 08070T), 900 ml pH 6.8 phosphate buffer, USP Apparatus 1, 75 rpm, 37° C., 3 hr): 55%
- % Released ([2]; Example 29 controlled release tablet (batch no. 08070T), 900 ml pH 6.8 phosphate buffer, USP Apparatus 1, 75 rpm, 37° C., 4 hr): 65%
- % Released ([2]; Example 29 controlled release tablet (batch no. 08070T), 900 ml pH 6.8 phosphate buffer, USP Apparatus 1, 75 rpm, 37° C., 5 hr): 72%
- % Released ([2]; Example 29 controlled release tablet (batch no. 08070T), 900 ml pH 6.8 phosphate buffer, USP Apparatus 1, 75 rpm, 37° C., 6 hr): 79%
- % Released ([2]; Example 29 controlled release tablet (batch no. 08070T), 900 ml pH 6.8 phosphate buffer, USP Apparatus 1, 75 rpm, 37° C., 8 hr): 90%
- % Released ([2]; Example 29 controlled release tablet (batch no. 08070T), 900 ml pH 6.8 phosphate buffer, USP Apparatus 1, 75 rpm, 37° C., 10 hr): 98%
- % Released ([2]; Example 29 controlled release tablet (batch no. 08070T), 900 ml pH 6.8 phosphate buffer, USP Apparatus 1, 75 rpm, 37° C., 12 hr): 102%
